Data set [1] concerns colon cancer cell line HCT-15. In words: Growth inhibition, sulforhodamine-based protein determination, HCT-15. The class given is cell-based. Particulars: Homo sapiens, HCT-15, 144 h; continuous exposure six days. On the procedure:
(§1) The novel compound SR 13179 was assayed for its ability to inhibit growth in several cancer cell lines. The cell lines studied included breast cancer cell line MCF-7 (ER+); prostate cancer cell lines LNCaP, PC3, and DU145; lung cancer cell line A427; ovarian cancer cell lines IGROV1, OVCAR-3, OVCAR-4, OVCAR-5, OVCAR-8, and SK-OV-3; and colon cancer cell lines COLO 205, HCC-2998, HCT-116, HCT-15, HT29, KM12, AND SW-620.
(§2) The growth assays for the breast cancer cell lines were conducted according to the method of Example 16. For the other cell lines, each assay was conducted with continuous exposure to the test compound at four log concentrations for six days, using a sulforhodamine-based protein determination to measure growth inhibition.

Data set [2] relates to MDA-MB-231 breast cancer cells. As to the kind of experiment: Boyden-chamber Matrigel invasion/migration assay, MDA-MB-231. The class given is cell-based, human. As for the experimental part: Cell Culture. MCF-10CA1a cells were cultured in Dulbecco's Modified Eagle Medium (DMEM) supplemented with 5% bovine serum, 2 mM glutamine and 1 mM non-essential amino acids. MDA-MB231 cells were grown in DMEM supplemented with 5% bovine serum. Cells were routinely maintained in a 5% CO2 incubator at 37° C.
General Procedure for Invasion Assay. MCF 10-CA1a or MDA-MB-231 breast cancer cells were treated with 1 or 5 μM of the compound being tested for 8 h. Cells were removed by trypsinizing and tested for their invasiveness by Boyden-chamber invasion assay. In the in vitro invasion/migration assays, a standard Matrigel-based assay, according to the manufacturer's (Becton-Dickinson) protocol, was used. Rehydrated Matrigel and control inserts were added to Falcon TC companion plates containing human fibronectin (30 μg/ml) as chemoattractant. Cellular suspensions (2×10^4 cells/0.5 ml) were added to individual wells of 24-well chambers (containing either control or Matrigel inserts), and the plates incubated (37° C., 5% CO2) in the presence of the compound being tested or vehicle for an additional 16-18 h. Non-invading or non-migrating cells were removed by scraping the top surfaces of the Matrigel and control inserts, respectively. The invading (or migrating) cells (on the bottom surface) were fixed (3.7% formaldehyde) and stained with Accustain (Sigma). The percent invasion was calculated as mean number of invading cells/the mean number of cells migrating through a control membrane×100.
(§3) The in vitro invasion through Matrigel was studied for two human breast cancer lines: MCF-10CA1a, a highly metastatic ER^+ line and MDA-MB-231, an ER^− line. […] At this concentration, SR13179 inhibited invasion of MDA-MB-231 by about 30% (and by 70% at 5 μM). To rule out a cytotoxic effect in the inhibition of invasion, a concurrent cytotoxicity assay was carried out and the number of viable cells was determined by MTT assay. There was less than 5% decrease in MDA-MB-231 cell viability at 5 μM concentration of SR13179 at 22 h. In the same experiment, a motility experiment was conducted, showing that cell migration was inhibited by about 20%.

Data set [3] concerns prostate cancer cell line PC-3. As to the kind of experiment: Growth inhibition, sulforhodamine-based protein determination, PC-3. Particulars: 144 h; continuous exposure six days. The data set is classed as cell-based. On the procedure: as §1, §2
Data set [4] has as its system ovarian cancer cell line OVCAR-8. In words: Growth inhibition, sulforhodamine-based protein determination, OVCAR-8. The class given is cell-based. Particulars: Homo sapiens, OVCAR-8, 144 h; continuous exposure six days. On the procedure:
as §1, §2

For data set [5], the system named is colon cancer cell line HCT-116. In words: Growth inhibition, sulforhodamine-based protein determination, HCT-116. The data set is classed as cell-based. Particulars: Homo sapiens, HCT-116, 144 h; continuous exposure six days. As for the experimental part: as §1, §2
Data set [6] concerns membrane-type 1 MMP (MT1-MMP). As to the kind of experiment: MT1-MMP protein expression, MCF-10-CA1a cells. The class given is cell-based, human. An excerpt:
Western Blotting. Proteins were separated by gel electrophoresis using 4-12% pre-cast SDS-polyacrylamide gels (Invitrogen, Carlsbad, Calif.) and then electrophoretically transferred onto Hybond™-P membrane (Amersham Biosciences, Piscataway, N.J.). Blots were probed with specific antibodies (Santa Cruz Biotechnology, Inc). The ECL Plus Western Blotting Detection System of Amersham Biosciences (Piscataway, N.J.) and the procedure recommended by the manufacturer was used for the detection of antigens. Protein bands were quantified by analyzing the images obtained using an Alphaimager™ S-3400 (Alpha Innotech Corp., San Leandro, Calif.).
The effects of SR 13179 on the protein expression of TIMP-1, TIMP-2, and membrane-type 1 MMP (MT1-MMP) were studied. SR13179 induced the protein expression of TIMP-2 in a dose- and time-dependent manner. MCF-10-CA1a cells were treated with SR 13179 at 1, 3, or 5 μM concentrations for 48 h, or, alternatively, with […] SR 13179 for 8, 24, or 48 h. Cells were lysed and subjected to Western blotting.
The effect of SR13179 on the extracellular levels of TIMP-2 as well as MMP-2 was also investigated. Treatment of MCF-10CA1a cells with SR13179 at 5 μM concentration caused 5- to 8-fold increase in the secreted level of TIMP-2 and a 2-fold decrease in the extracellular level of MMP-2. […]

In data set [7] the test system is colon cancer cell line COLO 205. In words: Growth inhibition, sulforhodamine-based protein determination, COLO 205. The settings on record: Homo sapiens, COLO 205, 144 h; continuous exposure six days. The data set is classed as cell-based. As for the experimental part:
as §1, §2

The test system of data set [8] is SKOV-3 human ovarian cancer xenografts. In words: SKOV-3 adriamycin- and cisplatin-resistant human ovarian cancer xenografts in nude mice. The data set is classed as in vivo, female BALB/c mice. On the procedure:
The in vivo antitumor activity of SR 13179 against the highly aggressive adriamycin and cisplatin-resistant human ovarian cancer cell line SKOV-3 was evaluated in nude mice xenografts. The experiment was carried out as follows: Female BALB/c mice were inoculated subcutaneously with the human ovarian cancer SKOV-3 cells on both flanks. SR 13179 was administered to the mice on the same day as tumor cell inoculation, via two routes of administration, orally and intraperitoneally, in three doses of 10 mg/kg, 30 mg/kg and 100 mg/kg, once a day as a suspension in 0.5% hydroxypropylcellulose. Body weights and tumor volumes were measured twice a week. Results. […] The body weights of the treated mice were unaffected at all doses studied.
Background: A xenograft is tissue or cells of one species grown in another, often human tumour cells in immunodeficient mice.

For a further data set, the system named is MDA-MB-231 cells. In words: Concurrent cytotoxicity assay (MTT), MDA-MB-231. The settings on record: 5 μM, 22 h. The data set is classed as cell-based, human. As for the experimental part: as §3

Usually IC50 stands for the concentration that inhibits the measured activity by half. A word on the inhibition: it is the change of the read-out against control, counted positive when it falls. Consider `COc1cc(C2CC(O)c3ccc4ccccc4c3O2)cc(OC)c1OC` (stereo not drawn) [SR 13179, 2-(3,4,5-trimethoxyphenyl)-3,4-dihydro-2H-benzo[h]chromen-4-ol], for which the IC50 in [1] came out at 270 nM; in [3], 289 nM; in data set [4], 364 nM; in data set [5] it was 310 nM; in data set [7], 266 nM. The “Invasion (%)” value in data set [2] (1 μM) stood at 60%; in data set [2] (5 μM), 25%. In addition, in data set [2] (Homo sapiens, MDA-MB-231, 1 μM), the inhibition at 1 µM was around 30%. Also, the inhibition at 5 µM in [2] (Homo sapiens, MDA-MB-231, 5 μM) is 70%. In [2] (same experiment as the cytotoxicity assay), the “inhibition of cell migration (motility experiment)” value is recorded as “about 20%”. Also, the MT1-MMP protein levels entry in data set [6] is given as “no significant effect”. For the same compound, the “tumors smaller than untreated control” value in data set [8] (Day 10, oral and i.p., 10, 30 and 100 mg/kg once a day) was “about 50%”. The “body weights of the treated mice” value in [8] (all doses studied (10, 30, 100 mg/kg; oral and i.p.)) is “unaffected”. Further, in data set [8] (duration of the four-week study, oral and i.p.), the “tumor growth compared to untreated control” value is listed as “significantly inhibited”. Moreover, in the data set with MDA-MB-231 cells, the “decrease in cell viability” value was “less than 5%”.

The values are drawn from patent publication US7638554B2, “Flavanoids as chemotherapeutic, chemopreventive, and antiangiogenic agents” (SRI International, priority 2002, dated 2009).
